# Assay results published in patent US9540391B2, “Isomannide derivatives as inhibitors of soluble epoxide hydrolase” (SANOFI, priority 2013, dated 2017).
# Molecular target: T1, recombinant sEH (Homo sapiens, UniProt P34913)
# T1 construct: made in house; host or cells: Sf9 insect cells
# T1 sequence (P34913 1-555): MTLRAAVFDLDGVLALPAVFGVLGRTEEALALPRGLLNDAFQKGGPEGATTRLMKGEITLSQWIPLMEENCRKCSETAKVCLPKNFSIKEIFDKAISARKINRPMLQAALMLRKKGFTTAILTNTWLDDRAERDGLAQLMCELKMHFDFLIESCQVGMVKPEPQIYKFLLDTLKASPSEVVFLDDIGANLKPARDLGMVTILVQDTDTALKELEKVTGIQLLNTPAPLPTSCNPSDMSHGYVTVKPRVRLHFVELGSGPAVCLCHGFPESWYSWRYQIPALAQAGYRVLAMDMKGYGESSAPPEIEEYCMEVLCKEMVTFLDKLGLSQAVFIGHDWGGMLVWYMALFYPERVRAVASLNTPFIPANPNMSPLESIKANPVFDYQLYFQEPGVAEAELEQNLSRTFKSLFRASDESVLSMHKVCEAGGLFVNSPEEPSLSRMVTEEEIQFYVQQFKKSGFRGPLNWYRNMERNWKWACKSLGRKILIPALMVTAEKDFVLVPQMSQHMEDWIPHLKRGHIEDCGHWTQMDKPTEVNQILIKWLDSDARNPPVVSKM
# Assay: biochemical screening assay for inhibition of soluble epoxide hydrolase (fluorometric, Phome substrate)
# Experimental: The ability of the compounds of the formula I to inhibit soluble epoxide hydrolase can be determined as follows:
# Compounds were tested in a biochemical screening assay using recombinant sEH purified from Sf9 insect cells and an artificial substrate, (3-phenyl-oxiranyl)-acetic acid cyano-(6-methoxy-naphtalen-2-yl)-methyl ester, Phome. The biochemical assay was performed in analogy to a fluorometric method described in the literature (P. D. Jones et al., Anal. Biochem. 2005, 343, 66-75). The assay principle bases on the sEH-catalyzed hydrolysis of an artificial α-cyano-ester substrate. 0-deacetylation liberates a cyanohydrin intermediate that rapidly decomposes to the highly fluorescent 6-methoxy-2-naphtaldehyde. To discriminate sample autofluorescence, the assay was carried out as a kinetic measurement with two time points. The first measurement is performed immediately before addition of the substrate and the second measurement is done after completion of the assay. The assay format is either in 96- or in 384-well format. Details of the assay using a 96-well plate format are described below. 40 μL recombinant sEH enzyme and 5 μL test compound are pre-incubated for 15 minutes at 30° C. Following pre-incubation, the reaction is started by addition of 5 μL Phome. The assay mixture containing 2 nM final sEH concentration, test compound ranging in a concentration from 0.0001-10 μM and 5 μM Phome is incubated for 60 minutes at 30° C.
# Fluorescence can be measured with any suitable detector for instance a TECAN Safire or Tecan Ultra at […]. % inhibition of recombinant sEH activity is used for calculation of corresponding IC50 values as illustrated and described in the examples.
# The NCBI gene bank reference sequence with the accession number NM_001979 for EPHX2/sEH was applied for recombinant protein production:
# The following commercially available materials have been used: • Incubation reagent: 25 mM Hepes (Sigma-Aldrich, Cat. No H-3375), 0.01% bovine albumin (Sigma-Aldrich Cat. No PA9205) • Substrate: 3-Phenyl-oxiranyl)-acetic acid cyano-(6-methoxy-naphtalen-2-yl)-methyl ester, Phome (Biozol Cat. No 10003134) • Microtiter plates: 96-well plates (Greiner Cat. No 655180; Costar Cat. No 3915)
row,Compound,IC50
1,"Cc1ncccc1O[C@H]1CO[C@H]2[C@@H]1OC[C@@H]2NC(=O)NC1CC(C)(C)CC(C)(C)C1 [Example 273, 1-[(3S,3aR,6S,6aS)-6-(2-Methyl-pyridin-3-yloxy)-hexahydro-furo[3,2-b]furan-3-yl]-3-(3,3,5,5-tetramethyl-cyclohexyl)-urea]",1 nM
2,"COc1cc(NC(=O)N[C@H]2CO[C@H]3[C@@H]2OC[C@@H]3C#Cc2ccsc2)cc(OC)c1 [Example 301, 1-(3,5-Dimethoxy-phenyl)-3-((3S,3aR,6S,6aR)-6-thiophen-3-ylethynyl-hexahydro-furo[3,2-b]furan-3-yl)-urea]",104 nM
3,"Cc1ccc(S[C@H]2CO[C@H]3[C@@H]2OC[C@@H]3NC(=O)NC2CCCCC2)nc1 [Example 59, 1-Cyclohexyl-3-[(3S,3aR,6S,6aS)-6-(5-methyl-pyridin-2-ylsulfanyl)-hexa-hydro-furo[3,2-b]furan-3-yl]-urea]",2 nM
4,"CC(=O)Nc1cccc(O[C@H]2CO[C@H]3[C@@H]2OC[C@@H]3NC(=O)NC2CCCCC2)c1 [Example 102, N-{3-[(3S,3aS,6S,6aR)-6-(3-Cyclohexyl-ureido)-hexahydro-furo[3,2-b]furan-3-yloxy]-phenyl}-acetamide]",2 nM
5,"O=C(NC1CCCCC1)N[C@H]1CO[C@H]2[C@@H]1OC[C@@H]2Oc1cc(F)cc(F)c1 [Example 133, 1-Cyclohexyl-3-[(3S,3aR,6S,6aS)-6-(3,5-difluoro-phenoxy)-hexahydro-furo[3,2-b]furan-3-yl]-urea]",< 1 nM
6,"O=C(NC1CCc2ccccc21)NC1COC2C(Oc3ccc(F)cc3)COC12 [Example 150, 1-[(3S,3aR,6S,6aS)-6-(4-Fluoro-phenoxy)-hexahydro-furo[3,2-b]furan-3-yl]-3-(S)-indan-1-yl-urea]",16 nM
7,"Cc1csc(S[C@H]2CO[C@H]3[C@@H]2OC[C@@H]3NC(=O)NC2CCCCC2)n1 [Example 58, 1-Cyclohexyl-3-[(3S,3aR,6S,6aS)-6-(4-methyl-thiazol-2-ylsulfanyl)-hexa-hydro-furo[3,2-b]furan-3-yl]-urea]",2 nM
8,"Cc1ncccc1O[C@H]1CO[C@H]2[C@@H]1OC[C@@H]2NC(=O)NC1CCCC(C)C1C (stereo partly drawn) [Example 261, 1-(2,3-Dimethyl-cyclohexyl)-3-[(3S,3aR,6S,6aS)-6-(2-methyl-pyridin-3-yloxy)-hexahydro-furo[3,2-b]furan-3-yl]-urea]",3 nM
9,"O=C(NC1CCCCC1)N[C@H]1CO[C@H]2[C@@H]1OC[C@@H]2S(=O)(=O)C1CCCCC1 [Example 74, 1-((3S,3aR,6S,6aS)-6-cyclohexanesulfonyl-hexahydro-furo[3,2-b]furan-3-yl)-3-cyclohexyl-urea]",5 nM
10,"Cc1nc(CNC(=O)N[C@H]2CO[C@H]3[C@@H]2OC[C@@H]3Oc2cccnc2C)cs1 [Example 227, 1-[(3S,3aR,6S,6aS)-6-(2-Methyl-pyridin-3-yloxy)-hexahydro-furo[3,2-b]furan-3-yl]-3-(2-methyl-thiazol-4-ylmethyl)-urea]",1680 nM
11,"O=C(Nc1ccc2c(c1)OCO2)NC1COC2C(CCc3ccccc3)COC12 [Example 348, 1-Benzo[1,3]dioxol-5-yl-3-((3S,3aR,6S,-6aR)-6-phenethyl-hexahydro-furo[3,2-b]furan-3-yl)-urea]",229 nM
12,"CC(C)(C)S[C@H]1CO[C@H]2[C@@H]1OC[C@@H]2NC(=O)NC1CCCCC1 [Example 21, 1-((3S,3aR,6S,6aS)-6-tert-Butylsulfanyl-hexahydro-furo[3,2-b]furan-3-yl)-3-cyclohexyl-urea]",1 nM
13,"CCC(O)(CC)c1cncc(O[C@H]2CO[C@H]3[C@@H]2OC[C@@H]3NC(=O)NC2CCCCC2)c1 [Example 69, 1-cyclohexyl-3-{(3S,3aR,6S,6aS)-6-[5-(1-ethyl-1-hydroxy-propyl)-pyridin-3-yloxy]-hexahydro-furo[3,2-b]furan-3-yl}-urea]",2 nM
14,"Cc1ncccc1O[C@H]1CO[C@H]2[C@@H]1OC[C@@H]2NC(=O)NCc1ccc(OC(F)F)cc1 [Example 189, 1-(4-Difluoromethoxy-benzyl)-3-[(3S,3aR,6S,6aS)-6-(2-methyl-pyridin-3-yloxy)-hexahydro-furo[3,2-b]furan-3-yl]-urea]",23 nM
15,"Cc1ncccc1O[C@H]1CO[C@H]2[C@@H]1OC[C@@H]2NC(=O)N[C@@H]1CCCC[C@H]1C(C)(C)C [Example 265, 1-((1R,2S)-2-tert-Butyl-cyclohexyl)-3-[(3S,3aR,6S,6aS)-6-(2-methyl-pyridin-3-yloxy)-hexahydro-furo[3,2-b]furan-3-yl]-urea]",111 nM
16,"Cc1ncccc1O[C@H]1CO[C@H]2[C@@H]1OC[C@@H]2NC(=O)NCc1cnn(C)c1 [Example 192, 1-(1-Methyl-1H-pyrazol-4-ylmethyl)-3-[(3S,3aR,6S,6aS)-6-(2-methyl-pyridin-3-yloxy)-hexahydro-furo[3,2-b]furan-3-yl]-urea]",1730 nM
17,"COc1cc(NC(=O)NC2COC3C(C=Cc4ccccc4)COC23)cc(OC)c1 [Example 321, 1-(3,5-Dimethoxy-phenyl)-3-[(3S,3aR,6R)-6-((S)-(Z)-styryl)-hexa-hydro-furo[3,2-b]furan-3-yl]-urea]",66 nM
18,"Cc1nc(-c2ccccc2O[C@H]2CO[C@H]3[C@@H]2OC[C@@H]3NC(=O)NC2CCCCC2)cs1 [Example 20, 1-Cyclohexyl-3-{(3S,3aR,6S,6aS)-6-[2-(2-methyl-thiazol-4-yl)-phenoxy]-hexahydro-furo[3,2-b]furan-3-yl}-urea]",2 nM
19,"O=C(NC1CCCCC1)N[C@H]1CO[C@H]2[C@@H]1OC[C@@H]2Oc1ccc(-c2ccccc2)cc1 [Example 105, 1-[(3S,3aR,6S,6aS)-6-(Biphenyl-4-yloxy)-hexahydro-furo[3,2-b]furan-3-yl]-3-cyclohexyl-urea]",7 nM
20,"O=C(NCCc1ccccc1)N[C@H]1CO[C@@H]2[C@@H](CCc3ccsc3)CO[C@@H]21 [Example 373, 1-Phenethyl-3-[(3S,3aR,6S,6aR)-6-(2-thiophen-3-yl-ethyl)-hexahydro-furo[3,2-b]furan-3-yl]-urea]",39 nM
21,"COc1cc(NC(=O)NC2COC3C(CCc4ccsc4)COC23)cc(OC)c1 [Example 361, 1-(3,5-Dimethoxy-phenyl)-3-[(3S,3aR,-6R)-6-((S)-2-thiophen-3-yl-ethyl)-hexahydro-furo[3,2-b]furan-3-yl]-urea]",39 nM
22,"Cc1ncccc1OC1COC2C(NC(=O)NCCc3ccccc3OC(F)(F)F)COC12 [Example 206, 1-[(3S,3aR,6S,6aS)-6-(2-Methyl-pyridin-3-yloxy)-hexahydro-furo[3,2-b]furan-3-yl]-3-[2-(2-trifluoro-methoxy-phenyl)-ethyl]-urea]",2 nM
23,"Cc1ncccc1O[C@H]1CO[C@H]2[C@@H]1OC[C@@H]2NC(=O)NC1CCCC(C)C1 (stereo partly drawn) [Example 258, 1-(3-Methyl-cyclohexyl)-3-[(3S,3aR,6S,6aS)-6-(2-methyl-pyridin-3-yloxy)-hexahydro-furo[3,2-b]furan-3-yl]-urea]",2 nM
24,"O=C(NC1CCCCC1)N[C@H]1CO[C@H]2[C@@H]1OC[C@@H]2SC1CCCCC1 [Example 12, 1-cyclohexyl-3-((3S,3aR,6S,6aS)-6-cyclohexylsulfanyl-hexahydro-furo[3,2-b]furan-3-yl)-urea]",1 nM
25,"Cc1ncccc1O[C@H]1CO[C@H]2[C@@H]1OC[C@@H]2NC(=O)NC(C)(C)C(F)(F)F [Example 232, 1-[(3S,3aR,6S,6aS)-6-(2-Methyl-pyridin-3-yloxy)-hexahydro-furo[3,2-b]furan-3-yl]-3-(2,2,2-trifluoro-1,1-dimethyl-ethyl)-urea]",268 nM
26,"O=C(NCCc1ccccc1)N[C@H]1CO[C@H]2[C@@H]1OC[C@@H]2C#Cc1ccccc1 [Example 297, 1-Phenethyl-3-((3S,3aR,6S,6aR)-6-phenylethynyl-hexahydro-furo[3,2-b]furan-3-yl)-urea]",67 nM
27,"O=C(Nc1ccc(F)cc1)NC1COC2C(CCc3ccccc3)COC12 [Example 360, 1-(4-Fluoro-phenyl)-3-[(3S,3aR,6R)-6-((S)-phenethyl)-hexahydro-furo[3,2-b]furan-3-yl]-urea]",81 nM
